From patent publication US8470847B2, “Derivatives of 7-alkynyl-1,8-naphthyridones, preparation method thereof and use of same in therapeutics” (Sanofi, priority 2007, dated 2013)

biological target: VEGFR-3 (Homo sapiens (Human), UniProt P35916); test: Measurement of the tyrosine kinase activity of VEGFR-3 by ELISA; type: biochemical; settings: VEGFR-3-TK, poly Glu-Tyr substrate, 30 μM ATP
Sequence (P35916 845-1173): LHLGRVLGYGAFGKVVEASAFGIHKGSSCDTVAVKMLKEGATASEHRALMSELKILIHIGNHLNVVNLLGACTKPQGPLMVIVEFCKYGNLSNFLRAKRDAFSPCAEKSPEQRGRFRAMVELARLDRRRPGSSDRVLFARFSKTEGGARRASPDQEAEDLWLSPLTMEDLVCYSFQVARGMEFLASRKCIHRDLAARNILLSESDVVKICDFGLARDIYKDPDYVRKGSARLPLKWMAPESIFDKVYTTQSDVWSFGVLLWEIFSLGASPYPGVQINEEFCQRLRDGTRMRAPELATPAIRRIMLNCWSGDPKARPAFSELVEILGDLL
Procedure: Measurement of the Tyrosine Kinase Activity of VEGFR-3 by ELISA
The enzymatic activity of VEGFR-3 is evaluated on an ELISA assay by measuring the intensity of phosphorylation of the substrate poly Glu-Tyr. […] The plate is then covered with an adhesive film and incubated overnight at 37° C. The following day, the wells are emptied by turning the plate over, washed by adding 300 μl of buffer solution (PBS+0.05% Tween 20) and dried by further incubation of the plate for 2 h at 37° C. A 90 μl reaction mixture is deposited onto each well. […] The plates are then incubated with gentle agitation at ambient temperature for 30 min. After 3 rinses with the buffer solution (300 μl/well per wash), 100 μl of anti-phosphotyrosine-HRP antibody ( 1/30 000) are added to each well and the plates are again incubated for 30 min at ambient temperature with gentle agitation. […] The total activity is evaluated by the difference in optical density obtained on samples incubated in the presence (stimulated) and in the absence (non-stimulated) of VEGFR-3.

Row | SMILES | IC50
1 | CCn1c(N)c(C(=O)NC)c(=O)c2ccc(C#CC(C)(O)COC)nc21 (single isomer, unassigned; (-)) [Compound 72, (−)-2-amino-1-ethyl-7-(3-hydroxy-4-methoxy-3-methylbut-1-yn-1-yl)-N-methyl-4-oxo-1,4-dihydro-1,8-naphthyridine-3-carboxamide] | 23 nM

system: not given; test: not given; settings: not given

Row | SMILES | melting point
2 | CCn1c(N)c(C(=O)NC)c(=O)c2ccc(C#CC(O)(COC)C3CC3)nc21 (racemic) [Compound 50, (±)-2-Amino-7-(3-cyclopropyl-3-hydroxy-4-methoxybut-1-yn-1-yl)-1-ethyl-N-methyl-4-oxo-1,4-dihydro-1,8-naphthyridine-3-carboxamide] | 208 °C
3 | CNC(=O)c1c(N)n(Cc2ccccn2)c2nc(C#CC(C)(O)COC)ccc2c1=O (racemic) | 169 °C
4 | CCn1c(N)c(C(=O)NC)c(=O)c2ccc(C#CC3(O)CCOC3)nc21 (racemic) [Compound 7, (±)-2-Amino-1-ethyl-7-[(3-hydroxytetrahydrofuran-3-yl)ethynyl]-N-methyl-4-oxo-1,4-dihydro-1,8-naphthyridine-3-carboxamide] | 253 °C
5 | CNC(=O)c1c(N)n(C2CCCC2)c2nc(C#CC(C)(O)CO)ccc2c1=O (racemic) [Compound 53, (±)-2-Amino-1-cyclopentyl-7-(3,4-dihydroxy-3-methylbut-1-yn-1-yl)-N-methyl-4-oxo-1,4-dihydro-1,8-naphthyridine-3-carboxamide] | 210.5 °C
6 | CCn1c(N)c(C(=O)NC)c(=O)c2ccc(C#CC(C)(O)c3cnccn3)nc21 (racemic) [Compound 48, (±)-2-Amino-1-ethyl-7-(3-hydroxy-3-pyrazin-2-ylbut-1-yn-1-yl)-N-methyl-4-oxo-1,4-dihydro-1,8-naphthyridine-3-carboxamide] | 271 °C
7 | CCn1c(N)c(C(=O)NC)c(=O)c2ccc(C#CC(O)C3CCCC3)nc21 (racemic) [Compound 10, (±)-2-Amino-7-(3-cyclopentyl-3-hydroxyprop-1-yn-1-yl)-1-ethyl-N-methyl-4-oxo-1,4-dihydro-1,8-naphthyridine-3-carboxamide] | 253 °C
